Test results reported in PMC6017563 (Molecules : A Journal of Synthetic Chemistry and Natural …, 2018).

Columns and labels:
testosterone in plasma = experiment: Testosterone-suppressive effect (plasma testosterone, AUEC, PK-PD model), normal rats; format: in vivo; conditions: Wistar, baseline AUEC subtracted, mean ± SE, n = 5
From the text: Leuprolide is a GnRH agonist for the treatment of prostate cancer which is a target disease in this study. In the label of the Lucrin depot, this is indicated for palliative treatment of advanced prostatic cancer. Therefore, we used the testosterone concentration as a PD marker of prostate cancer, and plasma testosterone is one of qualified biomarkers used as outcomes in the therapeutic area of oncology. Since most of the PD responses are expressed as a concentration profile of endogenous substances, it is difficult to calculate the value as a general trapezoidal rule. Scheff et al. introduced several methods for calculating AUEC when baselines differ. In this study, drug-specific AUEC was calculated by subtracting the baseline AUEC from the AUEC calculated by a general method, and these drug-specific AUECs were calculated by dividing them into positive AUECs and negative AUECs. […] There were significant differences between positive and negative AUEC in all experimental groups. When absolute values of positive and negative AUEC were compared, negative AUEC was more than three times higher. […] However, there was no significant difference in AUEC between each group on formulation, species and route of administration. This estimation of AUEC means that it could be used as a method for evaluating the formulation.
The PK–PD model, which describes the mechanism of negative feedback of leuprolide, was selected based on leuprolide mechanism characteristics and biomarker characteristics. […] The equations of the baseline model are as follows:(11) dR/dt = kin−kout·R (12) R0, wistar = 4.353 (13) R0,Iar:COP = 4.094 where kin and kout represent the apparent zero-order rate constant for the production of response and the first-order rate constant for the loss of response, respectively. These were estimated by curve fitting with the vehicle-administered group and used as the basic parameters of the drug-effect model described below (Group 2).
For this, several PD models were attempted, and the final PD model decided on was the tolerance model including the feedback compartment.
The plasma concentration of testosterone in plasma samples of each group was quantified using testosterone enzyme-linked immunosorbent assay (ELISA) kits (R&D Systems, Minneapolis, MN, USA). […]
Determination of the testosterone concentration was performed on using the validated Parameter^TM Testosterone Assay (R&D Systems, Minneapolis, MN, USA) and its process. […] The reaction was stopped when 50 μL of stop solution (2N sulfuric acid) was added, and the optical density of each well was measured using SynergyMX (BioTek, Winooski, VT, USA). All plasma samples were measured twice. […]

in vivo = conditions: rat; for half-life: plasma
Experimental: The PK parameters for each experimental group were estimated by one-compartmental analysis using WinNonlin® software (version 7.0, Pharsight®, a Certara™ Company, Princeton, NJ, USA).
For the vehicle-administered groups (Groups 2 and 5), the above dispersion solution was administered instead of the drug (Table 5). Blood samples were directly drawn from the right jugular vein at predetermined time intervals before administration and at 0.25, 1, 2, 4, 8 h, 1, 2, 3, 4, 5, 6, 7, 11, and 14 days after the drug administration. Approximately 300 μL of blood was collected periodically in heparinized tubes via the catheter and was immediately centrifuged at 12,000 g for 5 min and then stored at −80 °C until analysis.
After being shaken with a vortex mixer for 3 min and centrifuged at 10,000× g for 5 min at room temperature, the upper supernatant was transferred to a clean tube and mixed with 20 µL of acetic acid and 900 µL of methylene chloride by vortex-mixing for 3 min and centrifugation at 10,000× g for 5 min at room temperature. The aqueous upper sample aliquots (10 µL) were directly injected into the UPLC–MS/MS system. Analyses were performed with the following UPLC–MS/MS system: Acquity™ UPLC system (Waters Corp., Milford, MA, USA), Mass Spectrometer (Xevo™ TQ-S, Waters Corp.), HALO peptide ES-C18 column (2.1 mm × 100 mm, 2.7 µm particle size, Advanced Material Technology, Wilmington, DE, USA). The mobile phase consisted of 1% acetic acid in water and 1% acetic acid in acetonitrile with gradient at a flow rate of 0.2 mL/min.
The mass spectrometric detection was performed using an electrospray ionization (ESI) source in positive ionization mode. The optimization of MS parameters was accomplished as follows: capillary voltage, 2.9 kV; ion source temperature, 150 °C; desolvation temperature, 350 °C; flow rate of cone gas, 150 L/h; flow rate of desolation gas, 600 L/h; and pressure of argon gas, 4.5 × 10^−3 mbar, respectively. […] Data acquisition and analysis were performed by Masslynx 4.1 software (Waters Corp., Milford, CT, USA).
The PK and PD analysis was performed by non-compartmental and compartment analysis using WinNonlin® software (version 7.0, Pharsight®, a Certara™ Company, Princeton, NJ, USA). The maximum plasma concentration (Cmax) and the time to reach Cmax (Tmax) were measured by visual observation of the individual plasma concentration–time curve. The AUC0–∞ was integrated by the linear trapezoidal rule from time zero to the final measured concentration and was extrapolated from the final measured concentration to infinity. […] The elimination rate constant k is a value used to describe the rate at which the drug is removed from the biological system. The volume of distribution (Vd), which is the theoretical volume in biological fluid, was calculated as CL divided by the k, and the bioavailability (F) was estimated as the AUC0–∞ obtained from SC administration divided by the AUC0–∞, obtained from IV administration. AUEC could be estimated by numerical integration over all segments of the effect-time curve by the trapezoidal rule without extrapolation to infinity. Because the endogenous testosterone was used as a PD marker in this study, the AUEC value subtracted from the baseline AUEC was used for data analysis.
The PK–PD modeling was conducted to describe the PK–PD relationship, and to estimate model parameters using Berkeley Madonna software (ver. 8.3.14). Berkeley Madonna software is a useful tool for modeling and analysis of various biological systems by solving the various differential equations. […] Consequently, the PD model was established in two steps. First, the baseline model was developed by using the baseline profiles of the vehicle-administered control group. Second, the drug-effect model was established based on the parameters that were estimated from the baseline model.

[1] = Group 1, leuprolide solution 0.1 mg/kg IV
[2] = Group 3, leuprolide solution 0.1 mg/kg SC

CCNC(=O)[C@@H]1CCCN1C(=O)[C@H](CCCNC(=N)N)NC(=O)[C@H](CC(C)C)NC(=O)[C@@H](CC(C)C)NC(=O)[C@H](Cc1ccc(O)cc1)NC(=O)[C@H](CO)NC(=O)[C@H](Cc1c[nH]c2ccccc12)NC(=O)[C@H](Cc1c[nH]cn1)NC(=O)[C@@H]1CCC(=O)N1 [leuprolide, Leuprolide (Pyr-His-Trp-Ser-Tyr-D-Leu-Leu-Arg-Pro-NHEt)]
Negative AUEC (drug-specific, testosterone-suppressive effect) (testosterone in plasma; [1]): −1404.30 ± 287.31 | Positive AUEC (drug-specific, testosterone flare-up effect) (testosterone in plasma; [1]): 208.24 ± 52.30 | Negative AUEC (drug-specific, testosterone-suppressive effect) (testosterone in plasma; [2]): −775.98 ± 289.13 | Positive AUEC (drug-specific, testosterone flare-up effect) (testosterone in plasma; [2]): 220.87 ± 39.56 | AUC(0-inf) (in vivo; Wistar, in vivo, iv, 0.1 mg/kg): 106 ± 17.3 ng·h/mL | AUC(0-t) (in vivo; Wistar, in vivo, iv, 0.1 mg/kg): 103 ± 16.9 ng·h/mL | C0 (in vivo; Wistar, in vivo, iv, 0.1 mg/kg): 97.1 ± 13 ng/mL | Vd (in vivo; Wistar, in vivo, iv, 0.1 mg/kg): 0.193 ± 0.0542 L | clearance (in vivo; Wistar, in vivo, iv, 0.1 mg/kg): 4.14 mL/min | AUC(0-inf) (in vivo; Wistar, in vivo, sc, 0.1 mg/kg): 53.3 ± 9.96 ng·h/mL | AUC(0-t) (in vivo; Wistar, in vivo, sc, 0.1 mg/kg): 51.2 ± 9.56 ng·h/mL | Cmax (in vivo; Wistar, in vivo, sc, 0.1 mg/kg): 41.5 ± 4.61 ng/mL | bioavailability (in vivo; Wistar, in vivo, sc, 0.1 mg/kg): 50.6% | half-life (in vivo; Wistar, iv, 0.1 mg/kg): 31.2 ± 6 min | half-life (in vivo; Wistar, sc, 0.1 mg/kg): 39.6 ± 1.8 min | CL (in vivo; in vivo): 514.46 ± 40.10 mL/h | F (bioavailability) (in vivo; in vivo): 50.6% | Vd (in vivo; in vivo): 0.4874 ± 0.02902 L
